The values that follow come from article PMC3563528, “Ultrashort Cationic Lipopeptides and Lipopeptoids Selectively Induce Cytokine Production in Macrophages” (PLoS ONE, 2013).

One assay relates to S.aureus ATCC 29213. Also on record: method as in earlier work. To be noted: data from previous studies converted into µM; cited from earlier work.
Another assay concerns MRSA ATCC 33592. Also on record: method as in earlier work. As to conditions: data from previous studies converted into µM; cited from earlier work.
The subject of a further assay is MSSE 81388 CANWARD 2008. Also on record: method as in earlier work. As to conditions: data from previous studies converted into µM; cited from earlier work.
Assay [1] deals with MRSE (CZ >32) CAN-ICU 61589. Also noted: method as in earlier work. To be noted: data from previous studies converted into µM; cited from earlier work.
Assay [2] relates to human macrophage-like THP-1 cells. Kind of assay: IL-8 production by ELISA in TC supernatants. It counts as cell-based. To be noted: 24 h exposure; for IL-8 induction (in words): concentrations tested up to 100 µM; for IL-8 production: mean ± sem. Here is the method: (§1) Prior to testing, human monocytic THP-1 cells were differentiated to plastic-adherent macrophage-like THP-1 cells as previously described. The cells were rested for twenty-four hours, then exposed to the amphiphiles of interest for twenty-four hours. Cell free TC supernatants were monitored for the production of chemokines Groα and IL-8 by ELISA as previously described, [34]. The constitutive background level of chemokine Groα was 6.6±1.8 pg/ml, and that of IL-8 was 1.7±0.16 ng/ml. Encouragingly, the majority of compounds were strong inducers of both IL-8 and Groα and increased chemokine levels above background (Figure 2). […] The three amphiphiles with a LysLysLys peptide sequence and lipid tail at least sixteen carbons in length, 5–7, were especially strong inducers of IL-8, increasing the concentration to 5–8 ng/mL (p<0.05) above control at 10 µM of lipopeptide, and up to 13 ng/mL (p<0.01) above control at 50 µM (Figure 2). These amphiphiles compared favourably to LL-37 (1.3 ng/mL of IL-8 above control at 10 µM), despite their brief peptide sequence. […] All lipopeptides with lipid tails shorter than sixteen carbons were unable to induce either IL-8 or Groα at concentrations up to 100 µM (Figure 2, Figure S1).
(§2) ELISA results were obtained from two biological replicates with two technical replicates each and statistical analyses was performed using Student paired t-test. Error bars in the graphs represents standard error of the mean, and a p-value of less that 0.05 was considered to be statistically significant.

For assay [3] the test system is unchanged. The assay is described as follows: Groα production by ELISA in TC supernatants. The format is cell-based. As to conditions: 24 h exposure; for Groα induction (in words): concentrations tested up to 100 µM. Here is the method:
as §1, §2

Assay [4] shares this test system. The assay is described as follows: TNF-α production by ELISA in TC supernatants. It counts as cell-based. As to conditions: any concentration tested, at or below 100 µM, 24 h exposure. Here is the method:
as §2
Supplementary file pone.0054280.s002.tiff: Figure S2 TNF-α production by human macrophage-like THP-1 cells following incubation with amphiphiles 1–21. TC supernatants were monitored for cytokine production via ELISA, and results are reported in pg/mL. All studies were performed in two independent biological replicates with two technical replicates each. (TIFF) Click here for additional data file.
Background: In an ELISA, binding on a coated surface is turned into a signal by an enzyme label.

The test system is the same in assay [5]. Kind of assay: IL-1β production by ELISA in TC supernatants. It counts as cell-based. To be noted: 24 h exposure. The protocol:
Figure 3 IL-1β production. Human macrophage-like THP-1 cells were exposed to amphiphiles 4–11 and 14–21, for twenty-four hours. TC supernatants were monitored for IL-1β by ELISA, with results shown in pg/mL. Studies were performed in two independent biological replicates with two technical replicate each, with the data here presented as the mean plus sem. Inset: Expanded results for the negative control and amphiphiles 4–7 at 5 µM and 10 µM.
as §2

The test system of another assay is Gram positive strains. As to conditions: in vitro; cited from earlier work. The source says:
We have shown that ultrashort lipopeptides and lipopeptoids are able to induce selective cytokine production in human macrophages, despite little structural similarity to any known host defence peptide or CAMP.

The mark [6] stands for this setting: 50 µM amphiphile, two biological replicates with two technical replicates each.
[7] abbreviates: 50 µM amphiphile, mean ± sem, two biological replicates with two technical replicates each.

“And” between values parts separate entries of the source, which are not always exact repeats. Identical values can stand only once. Marks after values point to notes of the source that are not given here.

What is called MIC is the lowest concentration that inhibits growth of the organism.

As to C11-LysLysLys-NH2 [compound 4], the “Antimicrobial activity (MIC)” value with S.aureus ATCC 29213 was 561^a μM; in the assay on MRSA ATCC 33592, over 561 µM; with MSSE 81388 CANWARD 2008 it was 281 µM; in assay [1], 281 µM.
With C11-NLysGlyNLys-NH2 [compound 12], in assay [2], the “IL-8 induction (in words)” value was “inactive”. Besides, in assay [3], the “Groα induction (in words)” value was “inactive”.
In [2] (setting [6]), C16-LysGlyLys-NH2 [compound 1] came in with an IL-8 above control of 0.2 ng/mL.
C16-LysLysLys-NH2 [compound 5]: the IL-8 production in [2] (setting [6]) is 7.7 ± 0.6 ng/mL. The “Antimicrobial activity (MIC)” value in the assay with S.aureus ATCC 29213 was 8.1 µM; with MRSA ATCC 33592, 4.1 µM; in the assay on MSSE 81388 CANWARD 2008, under 0.25 µM; in assay [1], under 0.25 µM.
Take C16-NLysGlyNLys-NH2 [compound 13]: the “IL-8 induction (in words)” value in assay [2] is “inactive”. The “Groα induction (in words)” value in [3] is “inactive”.
Turning to C16OH-HarHarHar -NH2 [compound 10], in [2] (setting [6]), the IL-8 production result is listed as “up to 10 ng/mL”.
Regarding C16OH-LysGlyLys-NH2 [compound 2], in assay [2], the “IL-8 induction (in words)” value is on record as “failed to significantly increase IL-8 production”.
With C16OH-LysLysLys-NH2 [compound 6], the IL-8 production in [2] (setting [6]) was 12.5 ± 0.5 ng/mL. In assay [3] (setting [7]), this substance had a Groα production of 670 pg/mL. The “Antimicrobial activity (MIC)” value (in the assay on S.aureus ATCC 29213; in the assay on MRSA ATCC 33592; in the assay with MSSE 81388 CANWARD 2008; in [1]) was 128 µM throughout.
As for C16OH-NHarNHarNHar-NH2 [compound 20], the “IL-8 induction (in words)” value in assay [2] is reported as “moderate inducers”. In assay [3], the “Groα induction (in words)” value is given as “moderate inducers”. Also, in assay [4], the “TNF-α induction (in words)” value is given as “did not induce”. In [5], the “IL-1β induction (in words)” value was “did not induce”.
For C16OH-NLysNLysNLys-NH2 [compound 16], in assay [2], the “IL-8 induction (in words)” value is recorded as “moderate inducers”. Besides, the “Groα induction (in words)” value in assay [3] is reported as “moderate inducers”. Also, in [4], the “TNF-α induction (in words)” value was “did not induce”. Further, the “IL-1β induction (in words)” value in assay [5] is reported as “did not induce”.
C20-HarHarHar-NH2 [compound 11]: in assay [2] (setting [6]), the IL-8 production result is “up to 10 ng/mL”.
Take C20-LysGlyLys-NH2 [compound 3]: in [2], the “IL-8 induction (in words)” value is “failed to significantly increase IL-8 production”.
For the substance C20-LysLysLys-NH2 [compound 7], the “Increase of IL-1β concentration” value in assay [5] (moving from 10 µM to 50 µM) is recorded as “over forty-fold”. Also, the “Antimicrobial activity (MIC)” value (in the assay with S.aureus ATCC 29213; in the assay with MRSA ATCC 33592; in the assay with MSSE 81388 CANWARD 2008; in [1]) was 7.7 µM throughout.
Substance C20-NHarNHarNHar-NH2 [compound 21] came in with an IL-8 production in assay [2] (50 and 100 µM amphiphile) of 6 ± 0.8 ng/mL. Moreover, the “IL-8 induction (in words)” value in [2] is “moderate inducer”. In addition, the Groα production in [3] (setting [7]) is 996 ± 4 pg/mL and 1000 pg/mL; in assay [3] (100 µM amphiphile) it was 200 pg/mL. Further, in assay [3], the “Groα induction (in words)” value is on record as “strongest inducer”. The “Antimicrobial activity (MIC)” value in the assay with S.aureus ATCC 29213 is 6.9 µM; with MRSA ATCC 33592, 14 µM; with MSSE 81388 CANWARD 2008, 6.9 µM; in assay [1], 6.9 µM. The minimal inhibitory concentration (MIC) in the assay with Gram positive strains was at most 16 µg/mL.
As to “LLGDFFRKSKEKIGKEFKRIVQRIKDFLRNLVPRTES-OH [LL-37, human cathelicidin LL-37, natural host defence peptide, positive control, reference compound]”, the IL-8 above control in assay [2] (10 µM amphiphile, two biological replicates with two technical replicates each) is listed as 1.3 ng/mL. Also, the Groα production in [3] (2.5 µM) is given as 800 pg/mL.
